{"source": "patent US11780851B2", "about": "“LRRK2 inhibitors” (H. Lundbeck A/S, priority 2021, dated 2023)", "key": {"LRRK2 G2019S": {"target": "T1, LRRK2 G2019S (Homo sapiens, UniProt Q5S007, G2019S)", "T1 construct": "purchased Invitrogen (Life Technologies Corporation)", "T1 sequence (Q5S007 970-2527 G2019S)": "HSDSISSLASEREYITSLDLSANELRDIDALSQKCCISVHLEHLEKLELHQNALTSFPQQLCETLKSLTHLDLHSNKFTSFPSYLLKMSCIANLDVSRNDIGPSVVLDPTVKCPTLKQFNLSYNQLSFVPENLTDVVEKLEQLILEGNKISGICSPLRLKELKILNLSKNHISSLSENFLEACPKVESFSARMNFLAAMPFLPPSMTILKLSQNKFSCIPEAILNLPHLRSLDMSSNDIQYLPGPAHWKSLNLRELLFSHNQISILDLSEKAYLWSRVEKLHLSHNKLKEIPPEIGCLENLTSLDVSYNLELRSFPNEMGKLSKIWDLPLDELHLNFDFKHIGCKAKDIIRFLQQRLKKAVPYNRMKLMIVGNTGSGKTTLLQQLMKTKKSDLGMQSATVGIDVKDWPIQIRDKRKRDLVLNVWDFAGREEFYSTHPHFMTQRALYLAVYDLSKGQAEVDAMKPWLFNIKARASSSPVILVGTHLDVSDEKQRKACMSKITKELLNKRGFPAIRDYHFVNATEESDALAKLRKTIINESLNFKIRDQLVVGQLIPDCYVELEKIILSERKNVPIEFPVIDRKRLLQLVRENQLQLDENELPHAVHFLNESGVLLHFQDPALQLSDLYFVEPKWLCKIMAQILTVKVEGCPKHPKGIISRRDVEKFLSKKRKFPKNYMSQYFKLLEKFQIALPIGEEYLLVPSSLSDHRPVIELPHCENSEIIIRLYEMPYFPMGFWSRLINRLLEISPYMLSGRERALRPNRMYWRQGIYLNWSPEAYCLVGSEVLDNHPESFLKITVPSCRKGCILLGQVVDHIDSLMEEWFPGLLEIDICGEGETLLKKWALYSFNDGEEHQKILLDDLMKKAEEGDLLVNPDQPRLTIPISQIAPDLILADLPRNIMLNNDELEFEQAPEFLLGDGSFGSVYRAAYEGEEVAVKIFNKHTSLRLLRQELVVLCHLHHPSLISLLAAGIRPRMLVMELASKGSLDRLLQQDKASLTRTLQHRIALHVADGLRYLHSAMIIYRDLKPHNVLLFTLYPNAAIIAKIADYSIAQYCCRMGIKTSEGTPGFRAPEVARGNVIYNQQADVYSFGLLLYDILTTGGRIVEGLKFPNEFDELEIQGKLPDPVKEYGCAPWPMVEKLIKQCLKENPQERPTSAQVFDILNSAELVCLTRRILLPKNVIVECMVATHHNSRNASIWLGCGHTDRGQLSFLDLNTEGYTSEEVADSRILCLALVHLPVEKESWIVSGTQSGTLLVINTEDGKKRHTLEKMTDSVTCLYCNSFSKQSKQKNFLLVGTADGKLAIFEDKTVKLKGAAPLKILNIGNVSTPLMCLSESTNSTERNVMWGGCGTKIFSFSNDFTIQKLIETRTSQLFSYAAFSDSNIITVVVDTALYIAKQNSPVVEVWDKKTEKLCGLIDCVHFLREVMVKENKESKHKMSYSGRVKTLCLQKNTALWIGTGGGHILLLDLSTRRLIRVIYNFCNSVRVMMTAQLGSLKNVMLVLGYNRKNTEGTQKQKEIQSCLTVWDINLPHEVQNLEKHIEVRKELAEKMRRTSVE", "assay": "LRRK2 G2019S kinase activity assay (LanthaScreen TR-FRET)", "assay_type": "biochemical", "conditions": "250 pM LRRK2 G2019S, 1.3 mM ATP, 3 h at 30° C.; n≥2 tests", "how_it_was_run": "(§1)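 TR-FRET measured phosphorylation of fluorescein-ERM LRRKtide by human LRRK2 residues 970–2527, wild-type or G2019S, detected with a terbium anti-phospho-LRRKtide antibody. The 520/495 nm ratio was normalized to uninhibited and inhibitor controls. IC50 came from a Hill fit, log-averaged over independent experiments.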"}, "LRRK2 WT": {"target": "T2, LRRK2 WT (Homo sapiens, UniProt Q5S007)", "T2 construct": "comprises residue 970 to 2527 of the full length human wild-type LRRK2 kinase; purchased Invitrogen (Life Technologies Corporation)", "T2 sequence (Q5S007 970-2527)": "as the sequence (Q5S007 970-2527 G2019S) above, with S1050G counted along it", "assay": "LRRK2 wild-type kinase activity assay (LanthaScreen TR-FRET)", "assay_type": "biochemical", "conditions": "1 nM LRRK2 WT, 1.3 mM ATP, 3.5 h at 30° C.; n≥2 tests", "how_it_was_run": "as §1"}, "[1]": {"system": "panel of 403 wild type kinases", "assay": "Broad kinase selectivity, Eurofins DiscoverX scanMAX panel", "assay_type": "binding, primarily of human origin", "conditions": "screening concentration 100 nM; for Number of Hits: 403 non-mutant kinases", "procedure": "Protein kinase profiling of the inhibitors (Fabian, M. A. et al. inhibitors. Nat. […] Selectivity Score or S-score is a quantitative measure of compound selectivity. It was calculated by dividing the number of kinases that compounds bind to by the total number of distinct kinases tested, excluding mutant variants. S=Number of hits/Number of assays. This value can be calculated using % Ctrl as a potency threshold (below) and provides a quantitative method of describing compound selectivity to facilitate comparison of different compounds."}, "[2]": {"assay": "Hepatocyte intrinsic clearance assay", "assay_type": "in vitro ADME, human", "conditions": "human, pooled donor, cryopreserved hepatocytes, pH 7.4, 0.1 μM, 2 h at 37° C., 1×10^6 hepatocytes/mL; * measured on 3 separate occasions, ** on a single occasion", "how_it_was_run": "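Test compound at 0.1 μM final (0.05% organic) incubated 2 h at 37° C with shaking in supplemented Leibovitz L-15 medium (pH7.4), 1×10^6 hepatocytes/mL final. Samples taken 1–120 min, quenched in acetonitrile, analyzed by LC-MS/MS. CLint derived from slope of % remaining versus time.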"}, "[3]": {"assay": "Free fraction in plasma (equilibrium dialysis)", "assay_type": "in vitro ADME, male Sprague-Dawley rat", "conditions": "rat plasma, 1 μM, 5 h at 37° C.", "how_it_was_run": "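Equilibrium dialysis (12-14 kDa membrane) of male Sprague-Dawley rat or female Gottingen minipig plasma, or rat brain homogenate diluted 1:4, against 100 mM sodium phosphate pH 7.4, compound at 1 μM nominal (≤0.5% DMSO), 5 h at 37 °C. LC/MS-MS quantification; percent free calculated, with dilution factor 4 for brain.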"}}, "data": [{"smiles": "[2H]C([2H])([2H])c1c2c(nn1C1CCOCC1)OCCCn1nc(Cl)c3cnc(nc31)N2", "note": "[Example 13, 8-Chloro-3-(methyl-d3)-2-(tetrahydro-2H-pyran-4-yl)-2,4,12,13-tetrahydro-11H-5,7-(azenometheno)dipyrazolo[3,4-b:5′,1′-g][1]oxa[4,6,8]triazacycloundecine]", "values": [{"measurement": "IC50", "setting": "LRRK2 G2019S", "result": 2.5, "unit": "nM"}, {"measurement": "IC50", "setting": "LRRK2 WT", "result": 9.6, "unit": "nM"}, {"measurement": "Selectivity Score", "setting": "[1]; S(1): % Ctrl < 1", "result": 0.002}, {"measurement": "Number of Hits", "setting": "[1]; S(1): % Ctrl < 1, hit is LRRK2 WT", "result": 1}, {"measurement": "Selectivity Score", "setting": "[1]; S(10): % Ctrl < 10", "result": 0.03}, {"measurement": "Number of Hits", "setting": "[1]; S(10): % Ctrl < 10", "result": 12}, {"measurement": "Selectivity Score", "setting": "[1]; S(35): % Ctrl < 35", "result": 0.094}, {"measurement": "Number of Hits", "setting": "[1]; S(35): % Ctrl < 35", "result": 38}, {"measurement": "CLint scaled at 0.1 μM", "setting": "[2]", "result": 6, "unit": "mL/min/kg"}, {"measurement": "fuplasma (% free)", "setting": "[3]", "result": 32.0, "unit": "% free"}]}]}
